Literature values in patent US20090175941A1, “Tablet-form slow-release preparation for vertigo” (priority 2005, published 2009).

C(=C\c1ccccc1)/CN1CCN(C(c2ccccc2)c2ccccc2)CC1 [cinnarizine, 1-benzhydryl-4-trans-cinnamylpiperazine]
solubility in water: approximately 2 mg/100 ml
